Measured values as given in PubChem BioAssay AID344 (DTP/NCI, 2004).
“And” between values parts separate entries of the source, which are not always exact repeats. Equal values may be shown once. Inconclusive results and toxic doses are left out. *1 amine or outer side, *2 acyl side, *3 side chain or, on linkers, in order; H or OH if unused. Where a SMILES comes first, the peptide text is derived from it. Bridges are numbered along the chain shown (N, C = ends). Roman numbers before positions name the chains, in order. [ ]: non-standard residue; d: D form. Actinocin(9to1) = Cc1c2oc3c(C)ccc(C(=O)[*:1])c3nc-2c(C(=O)[*:2])c(N)c1=O; aThr = C[C@H](O)[C@H](N)C(=O)O; NMeV = CN[C@H](C(=O)O)C(C)C; Sar = CNCC(=O)O

System: mice, LPC-1 plasma cell tumor ip, median survival T/C
Assay: NCI In Vivo Anticancer Drug Screen. Data for tumor model Lieberman Plasma Cell No. 1 (LPC-1) (intraperitoneal) in unknown mice
Conditions: endpoint: median survival time, higher = longer survival
Method: The antitumor activity of compounds was measured in mice bearing transplantable tumors. Survival or tumor size were measured and the results are expressed as the measurement made in the treated group (T) divided by the measurement made in the vehicle treated control group (C). The tumor model used in this assay is Lieberman Plasma Cell No. 1 (LPC-1) (intraperitoneal) in unknown mice

[1] = dose: 108.0 mg/kg/injection, schedule: Q01DX028 (sc), vehicle: saline
[2] = dose: 180.0 mg/kg/injection, schedule: Q01DX028 (sc), vehicle: saline
[3] = dose: 300.0 mg/kg/injection, schedule: Q01DX028 (sc), vehicle: saline
[4] = dose: 500.0 mg/kg/injection, schedule: Q01DX028 (sc), vehicle: saline
[5] = dose: 12.5 mg/kg/injection, schedule: Q01DX028 (sc), vehicle: carboxymethylcellulose (CMC)
[6] = dose: 25.0 mg/kg/injection, schedule: Q01DX028 (sc), vehicle: carboxymethylcellulose (CMC)
[7] = dose: 50.0 mg/kg/injection, schedule: Q01DX028 (sc), vehicle: carboxymethylcellulose (CMC)

With O=c1[nH]c(=O)n(C2CC(O)C(CO)O2)cc1F (centres undefined) the T/C [1] was 102 % of control and 109 % of control, the T/C [2] was 97 % of control and the T/C [3] was 91 % of control. The T/C [4] was 86 % of control.
With CS(=O)(=O)OCCCCCOS(C)(=O)=O the T/C (dose: 10.0 mg/kg/injection, schedule: Q01DX028 (sc), vehicle: water) was 107 % of control, the T/C (dose: 40.0 mg/kg/injection, schedule: Q01DX028 (sc), vehicle: water) was 107 % of control and the T/C (dose: 44.0 mg/kg/injection, schedule: Q01DX028 (sc), vehicle: carboxymethylcellulose (CMC)) was 120 % of control.
In the case of O=C(O)CCc1c[nH]c2ccc(N(CCCl)CCCl)cc12, the T/C (dose: 1.8 mg/kg/injection, schedule: Q01DX028 (sc), vehicle: carboxymethylcellulose (CMC)) is reported as 182 % of control, the T/C (dose: 2.7 mg/kg/injection, schedule: Q01DX028 (sc), vehicle: carboxymethylcellulose (CMC)) is reported as 113 % of control and the T/C (dose: 3.0 mg/kg/injection, schedule: Q01DX028 (sc), vehicle: carboxymethylcellulose (CMC)) is reported as 164 % of control. The T/C (dose: 5.0 mg/kg/injection, schedule: Q01DX028 (sc), vehicle: carboxymethylcellulose (CMC)) was 151 % of control, the T/C (dose: 6.0 mg/kg/injection, schedule: Q01DX028 (sc), vehicle: carboxymethylcellulose (CMC)) was 163 % of control and the T/C (dose: 9.0 mg/kg/injection, schedule: Q01DX028 (sc), vehicle: carboxymethylcellulose (CMC)) was 86 % of control.
In the case of CNNCc1ccc(C(=O)NC(C)C)cc1, the T/C (dose: 26.0 mg/kg/injection, schedule: Q01DX028 (sc), vehicle: saline) is reported as 96 % of control, the T/C (dose: 65.0 mg/kg/injection, schedule: Q01DX028 (sc), vehicle: saline) is reported as 166 % of control and the T/C (dose: 90.0 mg/kg/injection, schedule: Q01DX028 (sc), vehicle: saline) is reported as 115 % of control. The T/C [1] was 180 % of control, the T/C (dose: 135.0 mg/kg/injection, schedule: Q01DX028 (sc), vehicle: saline) was 100 % of control and the T/C [3] was 114 % of control. For the same molecule, the T/C [4] was 95 % of control.
O=c1[nH]c(=O)n(C2CC(O)C(CO)O2)cc1C(F)(F)F (centres undefined) was tested, and the T/C (dose: 50.0 mg/kg/injection, schedule: Q01DX028 (sc), vehicle: water) was 102 % of control, the T/C (dose: 100.0 mg/kg/injection, schedule: Q01DX028 (sc), vehicle: water) was 100 % of control and the T/C (dose: 200.0 mg/kg/injection, schedule: Q01DX028 (sc), vehicle: water) was 100 % of control. For the same molecule, the T/C (dose: 400.0 mg/kg/injection, schedule: Q01DX028 (sc), vehicle: water) was 97 % of control.
In the case of Cc1c2oc3c(C)ccc(C(=O)N[C@@H]4C(=O)N[C@H](C(C)C)C(=O)N5CCC[C@H]5C(=O)N(C)CC(=O)N(C)[C@@H](C(C)C)C(=O)O[C@H]4C)c3nc-2c(C(=O)N[C@@H]2C(=O)N[C@H](C(C)C)C(=O)N3CCC[C@H]3C(=O)N(C)CC(=O)N(C)[C@@H](C(C)C)C(=O)O[C@H]2C)c(N)c1=O (I: [aThr][dV]P[Sar][NMeV] / II: [aThr][dV]P[Sar][NMeV]; ester I:1-I:C, II:1-II:C; linker I:N-II:N via Actinocin(9to1)), the T/C (dose: 0.03 mg/kg/injection, schedule: Q01DX028 (sc), vehicle: saline) is reported as 95 % of control, the T/C (dose: 0.06 mg/kg/injection, schedule: Q01DX028 (sc), vehicle: saline) is reported as 100 % of control and the T/C (dose: 0.13 mg/kg/injection, schedule: Q01DX028 (sc), vehicle: saline) is reported as 95 % of control. For the same molecule, the T/C (dose: 0.25 mg/kg/injection, schedule: Q01DX028 (sc), vehicle: saline) was 90 % of control.
For CN(C)c1ccc(/C=C2\C=Cc3ccccc32)cc1, the T/C (dose: 6.3 mg/kg/injection, schedule: Q01DX028 (sc), vehicle: carboxymethylcellulose (CMC)) was 102 % of control, the T/C [5] was 102 % of control and the T/C [6] was 102 % of control. For the same molecule, the T/C [7] was 97 % of control and the T/C (dose: 100.0 mg/kg/injection, schedule: Q01DX028 (sc), vehicle: carboxymethylcellulose (CMC)) was 94 % of control.
For NC(CSCc1ccc(N(CCCl)CCCl)cc1)C(=O)O (centres undefined), the T/C (dose: 3.75 mg/kg/injection, schedule: Q01DX028 (sc), vehicle: saline) was 100 % of control, the T/C (dose: 7.5 mg/kg/injection, schedule: Q01DX028 (sc), vehicle: saline) was 111 % of control and the T/C (dose: 15.0 mg/kg/injection, schedule: Q01DX028 (sc), vehicle: saline) was 102 % of control. For the same molecule, the T/C (dose: 30.0 mg/kg/injection, schedule: Q01DX028 (sc), vehicle: saline) was 122 % of control.
In the case of O=P1(N(CCCl)CCCl)NCCCO1 (centres undefined), the T/C (dose: 2.0 mg/kg/injection, schedule: Q01DX028 (sc), vehicle: saline) is reported as 86 % of control, the T/C (dose: 3.12 mg/kg/injection, schedule: Q01DX028 (sc), vehicle: saline) is reported as 109 % of control and the T/C (dose: 4.0 mg/kg/injection, schedule: Q01DX028 (sc), vehicle: saline) is reported as 100 % of control. For the same molecule, the T/C (dose: 6.0 mg/kg/injection, schedule: Q01DX028 (sc), vehicle: saline) was 114 % of control, the T/C (dose: 8.0 mg/kg/injection, schedule: Q01DX028 (sc), vehicle: saline) was 161 % of control and the T/C (dose: 8.4 mg/kg/injection, schedule: Q01DX028 (sc), vehicle: saline) was 182 % of control and 184 % of control and 213 % of control. For the same molecule, the T/C (dose: 10.0 mg/kg/injection, schedule: Q01DX Z (sc), vehicle: saline) was 194 % of control, the T/C (dose: 12.0 mg/kg/injection, schedule: Q01DX028 (sc), vehicle: saline) was 243 % of control and the T/C (dose: 12.5 mg/kg/injection, schedule: Q01DX011 (sc), vehicle: saline) was 190 % of control. The T/C (dose: 12.5 mg/kg/injection, schedule: Q01DX024 (sc), vehicle: saline) was 229 % of control, the T/C (dose: 14.0 mg/kg/injection, schedule: Q01DX Z (sc), vehicle: saline) was 190 % of control and the T/C (dose: 15.62 mg/kg/injection, schedule: Q01DX010 (sc), vehicle: saline) was 150 % of control. The T/C (dose: 16.0 mg/kg/injection, schedule: Q01DX028 (sc), vehicle: saline) was 167 % of control and 212 % of control, the T/C (dose: 20.0 mg/kg/injection, schedule: Q01DX Z (sc), vehicle: saline) was 155 % of control and the T/C (dose: 23.0 mg/kg/injection, schedule: Q01DX Z (sc), vehicle: saline) was 166 % of control. For the same molecule, the T/C (dose: 24.0 mg/kg/injection, schedule: Q01DX028 (sc), vehicle: saline) was 114 % of control, the T/C (dose: 25.0 mg/kg/injection, schedule: Q01DX011 (sc), vehicle: saline) was 190 % of control and the T/C (dose: 25.0 mg/kg/injection, schedule: Q01DX015 (sc), vehicle: saline) was 91 % of control. For the same molecule, the T/C (dose: 25.0 mg/kg/injection, schedule: Q01DX024 (sc), vehicle: saline) was 244 % of control, the T/C (dose: 31.25 mg/kg/injection, schedule: Q01DX010 (sc), vehicle: saline) was 186 % of control and the T/C (dose: 32.0 mg/kg/injection, schedule: Q01DX028 (sc), vehicle: saline) was 200 % of control and 208 % of control. For the same molecule, the T/C (dose: 39.0 mg/kg/injection, schedule: Q01DX009 (sc), vehicle: saline) was 154 % of control, the T/C (dose: 39.0 mg/kg/injection, schedule: Q01DX Z (sc), vehicle: saline) was 150 % of control and the T/C (dose: 48.0 mg/kg/injection, schedule: Q01DX028 (sc), vehicle: saline) was 100 % of control. For the same molecule, the T/C (dose: 50.0 mg/kg/injection, schedule: Q01DX009 (ip), vehicle: saline) was 259 % of control and 88 % of control, the T/C (dose: 50.0 mg/kg/injection, schedule: Q01DX011 (sc), vehicle: saline) was 190 % of control and the T/C (dose: 50.0 mg/kg/injection, schedule: Q01DX015 (sc), vehicle: saline) was 211 % of control. The T/C (dose: 50.0 mg/kg/injection, schedule: Q01DX024 (sc), vehicle: saline) was 223 % of control, the T/C (dose: 64.0 mg/kg/injection, schedule: Q01DX028 (sc), vehicle: saline) was 168 % of control and the T/C (dose: 65.0 mg/kg/injection, schedule: Q07DX004 (sc), vehicle: saline) was 197 % of control. For the same molecule, the T/C (dose: 125.0 mg/kg/injection, schedule: Q01DX010 (sc), vehicle: saline) was 100 % of control, the T/C (dose: 128.0 mg/kg/injection, schedule: Q01DX028 (sc), vehicle: saline) was 97 % of control and the T/C [2] was 97 % of control.
In the case of CS(=O)(=O)OCCC(=O)NCNC(=O)CCOS(C)(=O)=O, the T/C (dose: 6.25 mg/kg/injection, schedule: Q01DX028 (sc), vehicle: carboxymethylcellulose (CMC)) is reported as 184 % of control, the T/C (dose: 12.5 mg/kg/injection, schedule: Q01DX012 (sc), vehicle: carboxymethylcellulose (CMC)) is reported as 105 % of control and the T/C [5] is reported as 223 % of control and 276 % of control. The T/C (dose: 25.0 mg/kg/injection, schedule: Q01DX012 (sc), vehicle: carboxymethylcellulose (CMC)) was 328 % of control, the T/C [6] was 200 % of control and 230 % of control and the T/C (dose: 50.0 mg/kg/injection, schedule: Q01DX012 (sc), vehicle: carboxymethylcellulose (CMC)) was 110 % of control. The T/C [7] was 107 % of control and 121 % of control and the T/C (dose: 75.0 mg/kg/injection, schedule: Q01DX028 (sc), vehicle: carboxymethylcellulose (CMC)) was 87 % of control.
O=NN(CCF)C(=O)NC1CCCCC1 was tested, and the T/C (dose: 33.0 mg/kg/injection, schedule: Q01DX028 (sc), vehicle: carboxymethylcellulose (CMC)) was 97 % of control.
